Reference: the supplement of paper PMC10307832

Assays:
Experiment in all cases: relative viability (nuclei count vs DMSO), 5 days (fraction); higher = more cells survive
EHT 1864 + OSI-027 = compound: C1COCCN1CC2=CC(=O)C(=CO2)OCCCCCSC3=C4C=CC(=CC4=NC=C3)C(F)(F)F [EHT 1864] + COc1cccc2cc(-c3nc([C@H]4CC[C@H](C(=O)O)CC4)n4ncnc(N)c34)[nH]c12 [OSI-027] (partner 0.5 µM)
Outline: (§1)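 A single step with final 0.05% Triton X-100, 1% formaldehyde and 1 ug/ml Hoechst fixed the cells and stained nuclei 5 days after treatment. Lung cancer cell lines in 1536-well plates had been treated by pin tool the day after seeding with one drug alone or a fixed anchor-drug dose plus five library-drug doses (not always all listed) in √10 steps, and nuclei were counted on 4× images. Relative viability is the ratio of nuclei in treated wells to nuclei in vehicle wells, taken as the median of duplicate plates.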

EHT 1864 + Alpelisib = compound: C1COCCN1CC2=CC(=O)C(=CO2)OCCCCCSC3=C4C=CC(=CC4=NC=C3)C(F)(F)F [EHT 1864] + Cc1nc(NC(=O)N2CCC[C@H]2C(N)=O)sc1-c1ccnc(C(C)(C)C(F)(F)F)c1 [Alpelisib] (partner 2 µM)
Outline: as §1

EHT 1864 + Lapatinib = compound: C1COCCN1CC2=CC(=O)C(=CO2)OCCCCCSC3=C4C=CC(=CC4=NC=C3)C(F)(F)F [EHT 1864] + CS(=O)(=O)CCNCc1ccc(-c2ccc3ncnc(Nc4ccc(OCc5cccc(F)c5)c(Cl)c4)c3c2)o1 [Lapatinib] (partner 2 µM)
Outline: as §1

EHT 1864 + Linsitinib = compound: C1COCCN1CC2=CC(=O)C(=CO2)OCCCCCSC3=C4C=CC(=CC4=NC=C3)C(F)(F)F [EHT 1864] + C[C@]1(O)C[C@@H](c2nc(-c3ccc4ccc(-c5ccccc5)nc4c3)c3c(N)nccn32)C1 [Linsitinib] (partner 1 µM)
Outline: as §1

Row | Cell Line | relative viability (EHT 1864 + OSI-027; first compound 0.04 µM) | relative viability (EHT 1864 + OSI-027; first compound 0.1265 µM) | relative viability (EHT 1864 + OSI-027; first compound 0.4 µM) | relative viability (EHT 1864 + OSI-027; first compound 1.265 µM) | relative viability (EHT 1864 + OSI-027; first compound 4 µM) | relative viability (EHT 1864 + Alpelisib; first compound 0.04 µM) | relative viability (EHT 1864 + Alpelisib; first compound 0.1265 µM) | relative viability (EHT 1864 + Alpelisib; first compound 0.4 µM) | relative viability (EHT 1864 + Alpelisib; first compound 1.265 µM) | relative viability (EHT 1864 + Alpelisib; first compound 4 µM) | relative viability (EHT 1864 + Lapatinib; first compound 0.04 µM) | relative viability (EHT 1864 + Lapatinib; first compound 0.1265 µM) | relative viability (EHT 1864 + Lapatinib; first compound 0.4 µM) | relative viability (EHT 1864 + Lapatinib; first compound 1.265 µM) | relative viability (EHT 1864 + Lapatinib; first compound 4 µM) | relative viability (EHT 1864 + Linsitinib; first compound 0.04 µM) | relative viability (EHT 1864 + Linsitinib; first compound 0.1265 µM) | relative viability (EHT 1864 + Linsitinib; first compound 0.4 µM) | relative viability (EHT 1864 + Linsitinib; first compound 1.265 µM) | relative viability (EHT 1864 + Linsitinib; first compound 4 µM)
1 | NCI-H3122 | 0.922 | 0.594 | 0.952 | 0.896 | 0.956 | 0.869 | 0.751 | 0.774 | 0.732 | 0.766 | 0.976 | 0.825 | 1.03 | 1.08 | 1 | 1.03 | 0.977 | 0.932 | 1.02 | 0.965
2 | PC-3 [JPC-3] | 0.743 | 0.575 | 0.742 | 0.732 | 0.646 | 1.04 | 0.944 | 1.01 | 0.957 | 0.987 | 0.508 | 0.405 | 0.452 | 0.474 | 0.438 | 0.982 | 0.938 | 0.942 | 0.949 | 0.952
3 | PC-14 | 0.813 | 0.75 | 0.814 | 1.05 | 0.88 | 0.916 | 0.888 | 0.952 | 0.901 | 0.846 | 0.316 | 0.28 | 0.325 | 0.294 | 0.272 | 0.955 | 0.973 | 0.954 | 0.985 | 0.99
4 | RERF-LC-KJ | 0.621 | 0.539 | 0.52 | 0.575 | 0.541 | 0.759 | 0.743 | 0.755 | 0.947 | 0.776 | 0.916 | 0.913 | 0.925 | 0.798 | 0.854 | 0.874 | 0.884 | 0.861 | 0.861 | 0.847
5 | SK-LU-1 | 0.357 | 0.262 | 0.32 | 0.33 | 0.312 | 1.02 | 1.02 | 0.928 | 0.996 | 0.815 | 0.91 | 0.65 | 0.795 | 0.878 | 0.781 | 1.09 | 1 | 0.95 | 1.11 | 1.12
6 | SK-MES-1 | 0.628 | 0.542 | 0.572 | 0.592 | 0.562 | 0.934 | 0.823 | 0.884 | 0.92 | 0.906 | 0.469 | 0.48 | 0.517 | 0.439 | 0.443 | 1.06 | 1.06 | 1.17 | 1.16 | 1.09
7 | SW 1573 | 0.592 | 0.54 | 0.605 | 0.482 | 0.55 | 0.772 | 0.896 | 0.737 | 0.608 | 0.719 | 1.22 | 0.912 | 1.12 | 1.03 | 1.06 | 0.923 | 0.943 | 0.812 | 0.814 | 0.709
8 | UMC-11 | 0.463 | 0.366 | – | 0.483 | 0.47 | 0.887 | 1.01 | 0.976 | 0.962 | 1.02 | 0.724 | – | 1.05 | 0.938 | 0.987 | 1.02 | 0.978 | 0.986 | 0.962 | 0.963
